Test results published in patent publication US10071996B2, “Optical isomer of 1,4-benzothiazepine-1-oxide derivative, and pharmaceutical composition prepared using same” (AETAS PHARMA CO., LTD., priority 2014, dated 2018).

How the values were obtained:
anaesthetized beagle dog [1] = test: Influence on ventricular effective refractory period in anaesthetized beagle dog; type: in vivo; conditions: for ventricular effective refractory period (% change rate vs control value 100%): anaesthetized beagle dog, i.v. rapid 5 minutes at 1 mg/kg/minute, measured immediately after administration, pacing interval 250 msec, FIG. 6; for extension of ventricular effective refractory period: beagle dog
Method: Influence on Ventricular Effective Refractory Period Test method: In the present test, by using an anaesthetized beagle dog, the influence of the first optical isomer component (A) and the second optical isomer component (B), each administered intravenously and rapidly, on ventricular effective refractory period was determined. The test was performed with n=5 for each group. The test compound was rapidly administered for 5 minutes at 1 mg/kg/minute. Measurement of ventricular effective refractory period was carried out immediately after the termination of the administration. The pacing interval was 250 msec. The measurement value was expressed in terms of mean value±SD. Test results: The test results are expressed in terms of % change rate when the previous value (i.e., control value) of ventricular effective refractory period is set at 100%.

anaesthetized rat = test: Influence on circulatory system (heart rate, blood pressure, max dP/dt, min dP/dt) in anaesthetized rat, continuous intravenous administration; type: in vivo; conditions: hydrochloride salt, i.v. continuous 0.1 mg/kg/minute for 20 minutes, difference vs 0 minute value; for change in the heart rate: FIG. 1; for change in blood pressure: FIG. 2; for change in left ventricular contraction function (max dP/dt): FIG. 3; for change in left ventricular relaxation function (min dP/dt): FIG. 4
Method: Measurement of heart rate, blood pressure, left ventricular contraction function (max dP/dt), and left ventricular relaxation function (min dP/dt)
Test method: In the present test, by using an anaesthetized rat, the influence of the hydrochloride salt of the first optical isomer component (A) and the second optical isomer component (B), each administered intravenously and continuously, on a circulatory system was determined. The test was performed with n=5 for each group. Each of the first component (A) or the second component (B) was continuously administered for 20 minutes at 0.1 mg/kg/minute, and then the measurement of heart rate, blood pressure, max dP/dt, and min dP/dt was performed. Each parameter was measured at 0 minute, 1 minute, 5 minutes, 10 minutes, 15 minutes, 20 minutes, 25 minutes, 30 minutes, 35 minutes, and 40 minutes after the administration, and the result was expressed in terms of a difference compared to the 0 minute value (previous value (i.e., control value)). The measurement value was expressed in terms of mean value±SD.
For the data of FIG. 1 to FIG. 4, determination of a significant difference was carried out by using t test.

anaesthetized beagle dog [2] = test: Influence on atrial effective refractory period in anaesthetized beagle dog; type: in vivo; conditions: FIG. 5; for atrial effective refractory period (% change rate vs control value 100%): hydrochloride salt, i.v. 10 minutes at 0.1 mg/kg/minute then 20 minutes at 0.05 mg/kg/minute, pacing interval 250 msec
Method: Influence on Atrial Effective Refractory Period
Test method: In the present test, by using an anaesthetized beagle dog, the influence of hydrochloride salt of the first optical isomer component (A) and the second optical isomer component (B), each administered intravenously and continuously, on atrial effective refractory period was determined. The test was performed with n=5 for each group. The test compound was continuously administered for 10 minutes at 0.1 mg/kg/minute and then for 20 minutes at 0.05 mg/kg/minute. Measurement of atrial effective refractory period till 270 minutes after the termination of the administration was carried out. The pacing interval was 250 msec. The measurement value was expressed in terms of mean value±SD.
Test results: The test results are expressed in terms of % change rate when the previous value (i.e., control value) of atrial effective refractory period is set at 100%.
For the data of FIG. 5, determination of a significant difference was carried out by using t test.

Solubility in solvents = type: physicochemical
[3] = Stability of the compound at room temperature; type: physicochemical

COc1ccc2c(c1)CN(C(=O)CCN1CCC(Cc3ccccc3)CC1)CC[S+]2[O-] (single isomer, unassigned) [second optical isomer component (B), 4-[3-(4-benzylpiperidin-1-yl)propionyl]-7-methoxy-2,3,4,5-tetrahydro-1,4-benzothiazepine-1-oxide]
ventricular effective refractory period (% change rate vs control value 100%) (anaesthetized beagle dog [1]; 1 mg/kg): significantly extended | extension of ventricular effective refractory period (anaesthetized beagle dog [1]; 1 mg/kg, dose dependent): can extend ventricular effective refractory period | change in the heart rate (anaesthetized rat): decreased | change in blood pressure (anaesthetized rat): decreased | change in left ventricular contraction function (max dP/dt) (anaesthetized rat): reduced | change in left ventricular relaxation function (min dP/dt) (anaesthetized rat): reduced | atrial effective refractory period (% change rate vs control value 100%) (anaesthetized beagle dog [2]): extended

COc1ccc2c(c1)CN(C(=O)CCN1CCC(Cc3ccccc3)CC1)CC[S+]2[O-] (stereo not shown) [oxalate of the compound [Ia], 4-[3-(4-benzylpiperidin-1-yl)propionyl]-7-methoxy-2,3,4,5-tetrahydro-1,4-benzothiazepine-1-oxide]
solubility in water, ethanol, and dimethyl sulfoxide (Solubility in solvents; oxalate, crystal): soluble

COc1ccc2c(c1)CN(C(=O)CCN1CCC(Cc3ccccc3)CC1)CC[S+]2[O-] (single isomer, unassigned) [first optical isomer component (A), 4-[3-(4-benzylpiperidin-1-yl)propionyl]-7-methoxy-2,3,4,5-tetrahydro-1,4-benzothiazepine-1-oxide]
ventricular effective refractory period (% change rate vs control value 100%) (anaesthetized beagle dog [1]; 1 mg/kg): not extended | extension of ventricular effective refractory period (anaesthetized beagle dog [1]; amount of up to 8 mg/Kg): does not show any extension | change in the heart rate (anaesthetized rat): mildly increased | change in blood pressure (anaesthetized rat): mildly increased | change in left ventricular contraction function (max dP/dt) (anaesthetized rat): enhanced | change in left ventricular relaxation function (min dP/dt) (anaesthetized rat): enhanced | atrial effective refractory period (% change rate vs control value 100%) (anaesthetized beagle dog [2]): extended | atrial effective refractory period extension compared with the other enantiomer (anaesthetized beagle dog [2]; same regimen): longer extension

COc1ccc2c(c1)CN(C(=O)CCN1CCC(Cc3ccccc3)CC1)CC[S+]2[O-] (racemic) [[Ia], 4-[3-(4-benzylpiperidin-1-yl)propionyl]-7-methoxy-2,3,4,5-tetrahydro-1,4-benzothiazepine-1-oxide]
stability to oxygen, humidity, acid, and alkali [3]: stable | solubility in ethanol and dimethyl sulfoxide (DMSO) (Solubility in solvents; free form, amorphous solid): easily dissolved | skin irritating property (Skin irritating property): has a skin irritating property
